Key:
[1] = system: HCT116 cells treated with a GSK3β inhibitor; assay: cells; assay type: cell-based; details: for GSK3b inh pretreated_Viability ATP HCT116 IC50/EC50: assay number 26, GSK3b inhibitor pretreated
RKO = assay: cells; assay type: cell-based; details: for Basal_Viability ATP RKO IC50/EC50: assay number 29
Colo320 = assay: cells; assay type: cell-based; details: for Basal_Viability ATP Colo 320 IC50/EC50: assay number 27
[2] = system: ECFC/ADSC co-culture cell nuclei number
[3] = system: endothelial tube formation in co-cultures of ECFCs and ADSCs treated with VEGF; assay: cells; assay type: cell-based, human
HCT116 = assay: cells; assay type: cell-based; details: basal; for Basal_Viability ATP HCT116 IC50/EC50: assay number 25
HT-29 = assay: cells; assay type: cell-based; details: for Basal_Viability ATP HT-29 IC50/EC50: assay number 28
DLD-1 = assay: cells; assay type: cell-based; details: for Basal_Viability ATP DLD-1 IC50/EC50: assay number 23
SW480 = assay: cells; assay type: cell-based; details: for Basal_Viability ATP SW480 IC50/EC50: assay number 24
SNU-C1 = assay: cells; assay type: cell-based; details: for Basal_Viability ATP SNU-C1 IC50/EC50: assay number 30

| SMILES | GSK3b inh pretreated_Viability ATP HCT116 IC50/EC50 [1] | VEGF_ADSC\ECFC Angio Hoechst NucArea IC50/EC50 [2] | VEGF_ADSC\ECFC Angio CD31 TubeArea IC50/EC50 [3] | Basal_Viability ATP HCT116 IC50/EC50 (HCT116) | GSK3b inh pretreated_Viability ATP HCT116 IC50/EC50 ([1]; concentration response) | Basal_Viability ATP RKO IC50/EC50 (RKO; concentration response) | Basal_Viability ATP Colo 320 IC50/EC50 (Colo320; concentration response) | Basal_Viability ATP HCT116 IC50/EC50 (HCT116; concentration response) | Basal_Viability ATP HT-29 IC50/EC50 (HT-29; concentration response) | Basal_Viability ATP DLD-1 IC50/EC50 (DLD-1; concentration response) | Basal_Viability ATP SW480 IC50/EC50 (SW480; concentration response) | Basal_Viability ATP SNU-C1 IC50/EC50 (SNU-C1; concentration response) | other results |
| --- | --- | --- | --- | --- | --- | --- | --- | --- | --- | --- | --- | --- | --- |
| COC(=O)C1=C(C)NC(C)=C(C(=O)O[C@@H]2CCCN(Cc3ccccc3)C2)[C@@H]1c1cccc([N+](=O)[O-])c1.Cl [NCGC00185768-01] | 5.3147 µM | > 10 µM | > 10 µM | 4.2797 µM |  |  |  |  |  |  |  |  | Basal_Viability ATP RKO IC50/EC50 (RKO): 8.0546 µM; Basal_Viability ATP Colo 320 IC50/EC50 (Colo320): 19.5148 µM; Basal_Viability ATP HT-29 IC50/EC50 (HT-29): 5.2728 µM; Basal_Viability ATP DLD-1 IC50/EC50 (DLD-1): 7.9596 µM; Basal_Viability ATP SW480 IC50/EC50 (SW480): > 20 µM; Basal_Viability ATP SNU-C1 IC50/EC50 (SNU-C1): 5.7601 µM |
| CCCCCCCCCCCCCCCCCCOP(=O)([O-])OC1CC[N+](C)(C)CC1 [NCGC00187909-02] |  | > 10 µM | > 10 µM |  | 5.7889 µM | 2.0992 µM | 2.358 µM | 3.1704 µM | 6.9016 µM | > 20 µM | 0.8519 µM | > 20 µM |  |
| CCOC(=O)/C=C(C)/C=C/C[C@@H](C)CCCC(C)C [NCGC00248275-02] |  | > 10 µM | > 10 µM |  | > 20 µM | > 20 µM | > 20 µM | > 20 µM | > 20 µM | > 20 µM | > 20 µM | > 20 µM |  |
| NC(=O)n1c(O)c(C(=O)c2cccs2)c2cc(Cl)ccc21 [NCGC00263542-01] |  |  |  |  |  |  |  |  |  |  |  |  | IC50/EC50, GSK3b inh pretreated_Viability ATP HCT116 (assay number 26) ([1]; GSK3b inh pretreated): 3.787 µM; IC50/EC50, Basal_Viability ATP RKO (assay number 29) (RKO; basal): 4.703 µM; IC50/EC50, Basal_Viability ATP Colo 320 (assay number 27) (Colo320; basal): 1.643 µM; IC50/EC50, VEGF_ADSC\ECFC Angio Hoechst NucArea (assay number 3) [2]: > 10 µM; IC50/EC50, VEGF_ADSC\ECFC Angio CD31 TubeArea (assay number 2) [3]: > 10 µM; IC50/EC50, Basal_Viability ATP HCT116 (assay number 25) (HCT116): 2.309 µM; IC50/EC50, Basal_Viability ATP HT-29 (assay number 28) (HT-29; basal): 5.6005 µM; IC50/EC50, Basal_Viability ATP DLD-1 (assay number 23) (DLD-1; basal): 6.9467 µM; IC50/EC50, Basal_Viability ATP SW480 (assay number 24) (SW480; basal): 1.02 µM; IC50/EC50, Basal_Viability ATP SNU-C1 (assay number 30) (SNU-C1; basal): 0.5375 µM |
| C/C(=N\O)[C@@H](C)NCC(C)(C)CN[C@H](C)/C(C)=N/O [NCGC00319018-01] | > 20 µM | > 10 µM | > 10 µM | > 20 µM |  |  |  |  |  |  |  |  | Basal_Viability ATP RKO IC50/EC50 (RKO; basal): > 20 µM; Basal_Viability ATP Colo 320 IC50/EC50 (Colo320; basal): > 20 µM; Basal_Viability ATP HT-29 IC50/EC50 (HT-29; basal): > 20 µM; Basal_Viability ATP DLD-1 IC50/EC50 (DLD-1; basal): > 20 µM; Basal_Viability ATP SW480 IC50/EC50 (SW480; basal): > 20 µM; Basal_Viability ATP SNU-C1 IC50/EC50 (SNU-C1; basal): > 20 µM |
| CCCCC[C@@H](O)CC[C@H]1[C@@H]2Cc3cccc(OCC(=O)O)c3C[C@@H]2C[C@@H]1O [NCGC00319020-01] | > 20 µM | > 10 µM | > 10 µM | > 20 µM |  |  |  |  |  |  |  |  | Basal_Viability ATP RKO IC50/EC50 (RKO; basal): > 20 µM; Basal_Viability ATP Colo 320 IC50/EC50 (Colo320; basal): > 20 µM; Basal_Viability ATP HT-29 IC50/EC50 (HT-29; basal): > 20 µM; Basal_Viability ATP DLD-1 IC50/EC50 (DLD-1; basal): > 20 µM; Basal_Viability ATP SW480 IC50/EC50 (SW480; basal): > 20 µM; Basal_Viability ATP SNU-C1 IC50/EC50 (SNU-C1; basal): > 20 µM |
| CC=CC1C(C(=O)OCc2c(F)c(F)c(COC)c(F)c2F)C1(C)C (centres unmarked) [NCGC00319021-01] |  | > 10 µM | > 10 µM |  | > 20 µM | > 20 µM | > 20 µM | > 20 µM | > 20 µM | > 20 µM | > 20 µM | > 20 µM |  |
| COC(=O)CCCCC(CCSS/C(CCO)=C(\C)N(C=O)Cc1cnc(C)nc1N)SC(C)=O (centres unmarked) [NCGC00319022-01] |  | > 10 µM | > 10 µM |  | > 20 µM | > 20 µM | > 20 µM | > 20 µM | > 20 µM | > 20 µM | > 20 µM | > 20 µM |  |

— paper PMC4503722, “Novel Phenotypic Outcomes Identified for a Public Collection of Approved Drugs from a Publicly Accessible Panel of Assays” (PLoS ONE, 2015)
